Test results: article PMC6874132, “Biosensors Show the Pharmacokinetics of S-Ketamine in the Endoplasmic Reticulum” (Frontiers in Cellular Neuroscience, 2019)
Values joined by “and” are separate entries in the source; they are usually repeats but may differ in a detail not shown here. Identical values can stand only once.

What was measured:
[1] = system: iSketSnFR constructs; test: Activation of the iSketSnFR constructs by a permanently charged analog; assay type: biochemical
Method: (§1) Biosensors selected for further study were purified with the His6 sequence included in the bacterial expression vector (Shivange et al., [2019]). Proteins were purified by immobilization in phosphate-buffered saline (PBS), pH 7.4, and elution in an imidazole gradient (10–200 mM). Proteins were concentrated by centrifugation through a 30 kDa cut off column, and by dialysis against PBS. The dialyzed protein was quantified using a nanodrop spectrofluorometer, and 50 or (preferably) 100 nM was used in dose-response studies to characterize responses to various ligands. Dose-response relations for ligands were conducted with the plate reader. The pH-dependent dose-response studies with purified iSketSnFR constructs were performed using 3× PBS buffers.
The permanently charged nicotine analog, N’-methylnicotinium, previously provided additional insights for the iNicSnFR family (Shivange et al., [2019]).

[2] = system: iSketSnFR2 (AK8); test: Dose-response of purified iSketSnFR2 (AK8) biosensor fluorescence; assay type: biochemical
Method: (§2) A Tecan Spark M10 96-well fluorescence plate reader (equipped with appropriate filters) was used to measure resting and S-ketamine-induced fluorescence (F0 and ΔF, respectively). Bacterial lysates were tested with excitation at 485 nm and emission at 535 nm. Promising clones were amplified and sequenced.
as §1
(§3) We introduce a convenient metric to summarize progress in evolving increasingly sensitive fluorescent biosensors for drugs. The metric, the S-slope, is especially appropriate for low drug concentrations because it corresponds to the relationship between [drug] and ΔF at the beginning of the dose-response relation. We define the S-slope for use with intensity-based drug biosensors:
(§4) S−slope = Δ(F/F0)/(Δ[drug]).
(§5) We state the S-slope in units of μM^−1.
(§6) This article uses the S-slope for measurements on S-ketamine biosensors in bacterial lysates, with purified proteins, and expressed in cells. […] In this case, we calculated (as in Figure 2A below),

[3] = system: iSketSnFR2_PM; test: Time-resolved fluorescence in Neuro2a cells transfected with iSketSnFR2_PM; assay type: cell-based
Description: (§7) We constructed two variants of the iSKetSnFR1 and iSketSnFR2 biosensors for expression in mammalian cells. The plasma membrane (_PM) and endoplasmic reticulum (_ER) variants were constructed by a circular polymerase extension cloning procedure. For iSketSnFR1_PM and iSKetSnFR2_PM, we cloned the bacterial constructs into pCMV(MinDis), a variant of pDisplay (Invitrogen, Carlsbad, CA, USA) lacking the hemagglutinin tag (Marvin et al., [2013]). We modified the previous transmembrane domain (Shivange et al., [2019]) as follows. […]
(§8) We find that signals with the iSKetSnFR constructs have brightness similar to those of the previous iNicSnFR cpGFP-based biosensors for nicotine (Shivange et al., [2019]), but the dynamic range is somewhat lower for the iKetSnFRs. […] Fluorescence measurements at λex = 470 nm have been described (Shivange et al., [2019]). […] PM-directed constructs were measured with a region of interest (ROI) that included only the cell periphery.
(§9) Solutions were delivered from elevated reservoirs by gravity flow, through solenoid valves (Automate Scientific, Berkeley, CA, USA), then through tubing fed into a manifold, at a rate of 1–2 ml/min. […] As usual in fluorescence imaging experiments, we excluded data from the brightest cells, because these may have fluorescent impurities or aggregates that produce a rapidly bleaching baseline. […]

[4] = system: iNicSnFR1, iNicSnFR2, and iNicSnFR3a, as well as 12 other biosensors in the series; test: Fluorescence test against iNicSnFR biosensors; assay type: biochemical; details: at concentrations <100 μM
Method: as §2, with “sequenced. The most sensitive construct in each round of SSM was used as a template for the next round of SSM.” for “sequenced.”
We tested S-ketamine and R-ketamine (Figure 1) against iNicSnFR1, iNicSnFR2, and iNicSnFR3a, as well as against 12 other biosensors in the series that led to the iNicSnFRs (Shivange et al., [2019]).

[5] = system: iSketSnFR1 (AK2); test: Dose-response of purified iSketSnFR1 (AK2) biosensor fluorescence; assay type: biochemical
Method: as §2, §1, §3, §4, §5, §6

[6] = system: endoplasmic reticulum (ER); test: Subcellular pharmacokinetics: S-ketamine in the endoplasmic reticulum measured with ER- and PM-targeted biosensors; assay type: cell-based; details: Neuro2a cells and human dopaminergic neurons differentiated from iPSCs
Description: as §7, §8, §9

[7] = system: iSketSnFR1_PM; test: Time-resolved fluorescence in iPSC-derived dopaminergic neurons transfected with iSketSnFR1_PM; assay type: cell-based, human; details: Figure 6C, dopaminergic neurons differentiated from iPSCs, average of five cells
Description: as §7, with “follows. We replaced the terminal KKPR of the PDGF receptor (a putative ER retention motif) with KYLQKRRERRRQ (a p14 Golgi export motif) and ENANSFCYENEVAL (a putative Kir2.X ER export motif).” for “follows.”
(§10) Fujifilm CDI^2 (formerly named Cellular Dynamics International, Madison WI, USA), furnished iCell DopaNeurons. […] The supplier has measured that 89% of the cells are positive for tyrosine hydroxylase by fluorescence-activated cell sorting. […]
as §8, with “periphery. […]” for “periphery.”

[8] = system: iSketSnFR1_ER; test: Time-resolved fluorescence in iPSC-derived dopaminergic neurons transfected with iSketSnFR1_ER; assay type: cell-based, human; details: Figure 6C, dopaminergic neurons differentiated from iPSCs, average of five cells
Description: as §7, with “follows. We replaced the terminal KKPR of the PDGF receptor (a putative ER retention motif) with KYLQKRRERRRQ (a p14 Golgi export motif) and ENANSFCYENEVAL (a putative Kir2.X ER export motif).” for “follows.”
as §10
as §8, with “periphery. […]” for “periphery.”

[9] = system: iSketSnFR2_ER; test: Time-resolved fluorescence in Neuro2a cells transfected with iSketSnFR2_ER; assay type: cell-based
Description: as §7, §8, §9

[10] = after which rapid antidepressant effects occur; ref Lester et al., 2012; Janssen Research and Development, 2019; cited from earlier work
[11] = system: iSketSnFR1_PM or iSketSnFR1_ER; test: Time-resolved fluorescence in Neuro2a cells transfected with iSketSnFR1 constructs; assay type: cell-based; details: 20 s pulses (Figure 4), read-out: half-maximal concentration of S-ketamine
Description: as §7, §8, §9

[12] = system: AK1; test: S-ketamine dose-response of biosensor construct AK1; assay type: biochemical; details: at 1 μM S-ketamine; Gly residue at position 357
Description: Starting with the iNicSnFR biosensor constructs (Shivange et al., [2019]), we constructed and measured ~3,000 mutants, in iterative rounds of site-saturated mutagenesis (SSM). We utilized the Quikchange mutagenesis protocol (Agilent), including a mixture of three primers, creating 22 unique codons encoding the 20 canonical amino acids (Kille et al., [2013]). The 22-codon procedure yields an estimated >96% residue coverage for a collection of 96 randomly chosen clones.
as §2, with “sequenced. […]” for “sequenced.”
Biosensors selected for further study were purified with the His6 sequence included in the bacterial expression vector (Shivange et al., [2019]). […] The dialyzed protein was quantified using a nanodrop spectrofluorometer, and 50 or (preferably) 100 nM was used in dose-response studies to characterize responses to various ligands. Dose-response relations for ligands were conducted with the plate reader. […]
as §6

[13] = Figure 5C, sub-μM S-ketamine, linear fit, average of 10 cells
[14] = [S-ketamine] <1 μM, mean ± SD, 25 total cells from two independent transfections
[15] = Figure 2B1, purified protein, pH 7.0, 3× PBS, Hill fit
[16] = Figure 2B2, purified protein, pH 7.0, 3× PBS, Hill fit

C[N+](C)(C)[C@]1(c2ccccc2Cl)CCCCC1=O [N,N-dimethyl-S-ketamine]
activation of the iSketSnFR constructs [1]: did not produce robust activation

CN[C@@]1(c2ccccc2Cl)CCCCC1=O [R-ketamine]
concentrations giving detectable responses [2]: > 100 µM
S-slope lower than that of S-ketamine ([2]; at iSketSnFR2): at least 100 fold

CN[C@]1(c2ccccc2Cl)CCCCC1=O [S-ketamine]
S-slope [3, 13]: 0.49 µM⁻¹
S-slope [3, 14]: 0.42 ± 0.14 µM⁻¹
fluorescence increase activated by ligand [4]: no detectable fluorescence increase
S-Ketamine Dose-Response S-slope ([5]; Figure 2A, purified protein): 0.32 µM⁻¹
EC50 [5, 15]: 10.7 ± 1.5 µM
ΔFmax/F0 [5, 15]: 3.4 ± 0.1
expected response ΔF/F0 in vitro ([5]; to 1 μM S-ketamine, expected from S-slope): 0.32
time for entry into the ER after appearing in the external solution [6]: within a few seconds
time to leave the ER after removal from the extracellular solution [6]: within a few seconds
S-slope [7]: 0.099 µM⁻¹ and 0.1 µM⁻¹
S-slope [8]: 0.111 µM⁻¹
S-slope [9, 13]: 0.26 µM⁻¹
S-slope [9, 14]: 0.29 ± 0.04 µM⁻¹
peak blood plasma concentrations [10]: 0.2 to 1 µM
EC50 [11]: ~10 µM
S-Ketamine Dose-Response S-slope ([2]; Figure 2A, purified protein): 1.87 µM⁻¹ and 1.9 µM⁻¹
EC50 [2, 16]: 1.16 ± 0.6 µM
ΔFmax/F0 [2, 16]: 3.0 ± 0.3
S-slope ([2]; Figure 7A, in solution, λEx = 400 nm, pH 7): -0.23 µM⁻¹
S-slope = delta(F/F0)/(delta[S-ketamine]) ([2]; in solution (abstract)): 1.9 µM⁻¹
[S-slope] (magnitude) ([2]; λex = 400 nm, purified protein, pH range 6 to 8.5 (Supplementary Figure S2)): ≤ 0.3
ΔF/F0 [12]: ~ 0.12
